Here are results for 6 molecules from ChEMBL document CHEMBL5360594, “Astellolides R-W, Drimane-Type Sesquiterpenoids from an Aspergillus parasiticus Strain Associated with an Isopod” (J Nat Prod, 2023).

The subject of one data set is MKN-45. As to the kind of experiment: Cytotoxicity against human MKN-45 cells assessed as inhibition of cell growth at 20 uM incubated for 48 hrs by MTT assay. Particulars: mkn-45, 48 h. The class given is toxicity, cell-based.
For another data set, the system named is MCF7. As to the kind of experiment: Cytotoxicity against human MCF7 cells assessed as inhibition of cell growth at 20 uM incubated for 48 hrs by MTT assay. The class given is toxicity, cell-based. Particulars: mcf7, 48 h.
Another data set relates to A549. As to the kind of experiment: Cytotoxicity against human A549 cells assessed as inhibition of cell growth at 20 uM incubated for 48 hrs by MTT assay. The class given is toxicity, cell-based. Particulars: a549, 48 h.
The test system of the next data set is HeLa. The data set can be described thus: Cytotoxicity against human HeLa cells assessed as inhibition of cell growth at 20 uM incubated for 48 hrs by MTT assay. The class given is toxicity, cell-based.
The test system of the next data set is HepG2. The data set can be described thus: Cytotoxicity against human HepG2 cells assessed as inhibition of cell growth at 20 uM incubated for 48 hrs by MTT assay. The class given is toxicity, cell-based. Particulars: hepg2, 48 h.
The test system of the next data set is CAL-62. As to the kind of experiment: Cytotoxicity against human CAL-62 cells assessed as inhibition of cell growth at 20 uM incubated for 48 hrs by MTT assay. Particulars: cal-62, 48 h. The class given is toxicity, cell-based.
Data set [1] has as its system RAW264.7. As to the kind of experiment: Antiinflammatory activity in mouse RAW264.7 cells assessed as inhibition of LPS-induced NO production preincubated with compound for 30 mins followed by LPS-stimulation and measured after 24 hrs by Griess assay. The class given is functional, cell-based.
The test system of the next data set is K562. As to the kind of experiment: Cytotoxicity against human K562 cells assessed as inhibition of cell growth at 20 uM incubated for 48 hrs by MTT assay. Particulars: k562, 48 h. The class given is toxicity, cell-based.
Data set [2] relates to RAW264.7. As to the kind of experiment: Cytotoxicity against mouse RAW264.7 cells assessed as inhibition of cell growth at 30 uM. The class given is toxicity, cell-based. Particulars: raw264.7, 30 µM.
For a further data set, the system named is HCT-116. The data set can be described thus: Cytotoxicity against human HCT-116 cells assessed as inhibition of cell growth at 20 uM incubated for 48 hrs by MTT assay. The class given is toxicity, cell-based. Particulars: hct-116, 48 h.
Another data set relates to 5637. As to the kind of experiment: Cytotoxicity against human 5637 cells assessed as inhibition of cell growth at 20 uM incubated for 48 hrs by MTT assay. The class given is toxicity, cell-based. Particulars: human, 5637, 48 h.

In the case of `CC(=O)OC[C@@]1(C)CCC[C@]2(COC(C)=O)C3=C(C[C@@H](OC(=O)c4cccnc4)[C@@H]12)C(=O)OC3`, the Activity result in the data set on MKN-45, in the data set on MCF7, in the data set on A549, with HeLa, in the data set on HepG2 and in the data set on CAL-62 was “Non-Toxic” each time. For the same molecule, the Activity entry in the data set with K562, in the data set on RAW264.7 [2], in the data set on HCT-116 and with 5637 was “Non-Toxic” each time. Moreover, the concentration for half-maximal inhibition (IC50) in the data set on RAW264.7 [1] turned out to be 19 µM.

On to `C[C@]1(CO)CCC[C@]2(CO)C3=C(CC[C@@H]12)C(=O)OC3`, for which the Activity entry in the data set with MKN-45, in the data set on MCF7, in the data set on A549, in the data set with HeLa, in the data set on HepG2 and with CAL-62 was “Non-Toxic” each time. For the same molecule, the Activity result in the data set on K562, with RAW264.7 [2], in the data set with HCT-116 and in the data set with 5637 was “Non-Toxic” throughout. Besides, the IC50 in the data set on RAW264.7 [1] came to 21 µM.

Take `CC12CCCC34C5=C(CC(O[C@@H]3OC1)C24)C(=O)OC5`: the Activity entry with MKN-45, in the data set with MCF7, with A549, in the data set with HeLa, in the data set on HepG2 and in the data set with CAL-62 was “Non-Toxic” each time. Besides, the Activity entry in the data set on K562, in the data set on RAW264.7 [2], with HCT-116 and with 5637 was “Non-Toxic” in each case. Moreover, the IC50 in the data set on RAW264.7 [1] was determined as 22 µM.

On to `C[C@]1(CO)CC[C@@H](O)[C@]2(C)C3=C(CC[C@@H]12)C(=O)OC3`, for which the Activity entry in the data set with MKN-45, with MCF7, in the data set on A549, in the data set on HeLa, with HepG2 and with CAL-62 was “Non-Toxic” throughout. Moreover, the Activity result with K562, in the data set on RAW264.7 [2], with HCT-116 and in the data set with 5637 was “Non-Toxic” throughout. Moreover, the IC50 in the data set with RAW264.7 [1] was 6.1 µM.

Regarding `CC(=O)OC[C@]12CCCC(C)(C)[C@@H]1[C@H](OC(=O)c1ccccc1)CC1=C2COC1=O`, the Activity result in the data set with MKN-45, with MCF7, with A549, with HeLa, with HepG2 and with CAL-62 was “Non-Toxic” in each case. The Activity result in the data set with K562, in the data set with RAW264.7 [2], in the data set with HCT-116 and in the data set with 5637 was “Non-Toxic” in each case. For the same molecule, the half-maximal inhibitory concentration (IC50) in the data set on RAW264.7 [1] was 6.8 µM.

Take `C[C@@H]1C[C@H]2[C@@H]3CCC4=CC(=O)C=C[C@]4(C)[C@@]3(F)[C@@H](O)C[C@]2(C)[C@@]1(O)C(=O)CO` [DEXAMETHASONE]: in the data set on RAW264.7 [1], the IC50 came out at 2.6 µM.
